Drawing on patent US8741932B2, “Imidazopyridine derivatives” (Piramal Enterprises Limited, priority 2009, dated 2014), this text covers IC50 for five compounds.

pIC50: −log10 of the molar value.

Common to all, as to format: cell-based
For one assay, the system named is STAT3. In words: STAT3 bioassay (Hela Stat3-luc, luciferase). Conditions: Homo sapiens, Oncostatin M induction. In short, it runs like this: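 Hela Stat3-luc cells (20,000/well, 24 h) pretreated with compound 1 h, then induced with 100 ng/ml final Oncostatin M for 7-8 h at 37 °C. Luciferase luminescence after lysis; percent inhibition versus induction control, IC50 from these percentages.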

The test system of the next assay is IL-6. In words: Human monocyte assay, LPS-stimulated IL-6. Particulars: Monocyte; human monocytes, 1 μg/ml LPS, 5 hours. In short, it runs like this:
(§1)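 Adherent human PBMC-derived monocytes (2×10^4/well) were cultured 48 h, preincubated 30 min with compound or 0.5% DMSO, then stimulated with 1 μg/ml E. coli LPS for 5 h at 37° C. TNF-α and IL-6 in supernatants were measured by ELISA.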

The next assay concerns IL-8. In words: Synovial tissue assay, IL-8. Particulars: Homo sapiens; synovial tissue cells from rheumatoid arthritis patients, 16 hours. The method, boiled down: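 Collagenase-digested synovial cells from rheumatoid arthritis patients (1×10^6 cells/ml, RPMI with 5% FBS and 5% human AB serum) incubated 16 h at 37° C with compounds at 0.01–100 μM, 0.5% DMSO. Cytokines in supernatants measured by ELISA; cytotoxicity by MTS at 490 nm versus DMSO-treated cells.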

The subject of another assay is TNF-α. In words: Human monocyte assay, LPS-stimulated TNF-α. Particulars: human monocytes, 1 μg/ml LPS, 5 hours. The method, boiled down: as §1
The test system of the next assay is PANC 1. In words: Cytotoxicity assay (propidium iodide), PANC 1. Conditions: Homo sapiens; PANC 1 (C5a, pancreatic); 48 hours.
The test system of another assay is A2780. In words: Cytotoxicity assay (propidium iodide), A2780. Particulars: Homo sapiens; A2780 (C3a, ovarian); 48 hours.
The subject of another assay is SKOV3. In words: Cytotoxicity assay (propidium iodide), SKOV3. Conditions: Homo sapiens, SK-OV-3; SKOV3 (C3b, ovarian); 48 hours.

Protocol for PANC 1: (§2) Cells from cell lines as mentioned in the table given below were seeded at a density of 3000 cells/well in a white opaque 96-well plate. Following incubation at 37° C./5% CO2 for a period of 18-24 hours, the cells were treated with various concentrations (stock solution was prepared in DMSO and subsequent dilutions were made in media as per ATCC guidelines) of the representative compounds of present invention (refer table 3) for a period of 48 hours. At the end of treatment, the spent culture medium was discarded, the cells were washed with 1×PBS and 200 μl of 7 μg/ml propidium iodide was added to each well. The plates were frozen at −70° C. for at least 24 hours. For analysis, the plates were brought to RT, allowed to thaw and were read in PolarStar fluorimeter with the fluorescence setting. The percentage of viable cells in the non treated set of wells was considered to be 100 and the percentage viability following treatment was calculated accordingly. IC50 values were calculated from graphs plotted using these percentages.
Protocol for SKOV3: as §2

The term pIC50 denotes −log10 of the IC50, conventionally taken in molar units. Read a low pIC50 as a large IC50. Usually IC50 stands for the midpoint of a concentration-inhibition curve. A low value points to higher potency. With `CN(N=Cc1cnc2ccc(-c3cccnc3)cn12)S(=O)(=O)c1cc(F)cc(F)c1` [Example 16, 3,5-Difluoro-N-methyl-N′-((6-(pyridine-3-yl)imidazo[1,2-a]pyridine-3-yl)methylene) benzenesulfonohydrazide], the pIC50 with STAT3 was 5.00 to 5.30; in the assay with TNF-α it was 6.00 to 9.00. Besides, the half-maximal inhibitory concentration (IC50) in the assay on IL-6 is 0.001 to 5 µM; in the assay with IL-8, 0.3 to 3 µM.
As for `CN(N=Cc1cnc2ccc(-c3cccnc3)cn12)S(=O)(=O)c1ccc(F)cc1` [Example 6, 4-Fluoro-N-methyl-N′-((6-(pyridine-3-yl)imidazo[1,2-a]pyridine-3-yl)methylene)benzenesulfonohydrazide], the pIC50 is 5.00 to 5.30 in the assay on STAT3, 5.30 to 8.00 in the assay on PANC 1, 6.00 to 9.00 in the assay on TNF-α and 5.30 to 8.00 with A2780. In addition, the results for the IC50 in the assay on IL-6 and in the assay on IL-8 were 0.001 to 5 µM and 0.3 to 3 µM, respectively.
Regarding `Cc1ccc([N+](=O)[O-])cc1S(=O)(=O)N(C)N=Cc1cnc2ccc(-c3cccnc3)cn12` [Example 25], the pIC50 is 5.30 to 7.00 in the assay with STAT3, 5.30 to 8.00 in the assay with SKOV3, 5.30 to 8.00 in the assay on PANC 1 and 5.30 to 8.00 with A2780. Further, the IC50 was in the range of 0.001 to 5 µM in the assay on IL-6 and 0.3 to 3 µM in the assay with IL-8.
Turning to `Cc1ccc(F)cc1S(=O)(=O)N(C)N=Cc1cnc2ccc(-c3cccnc3)cn12` [Example 21, 5-Fluoro-N, 2-dimethyl-N′-((6-(pyridine-3-yl)imidazo[1,2-a]pyridine-3-yl)methylene) benzenesulfonohydrazide], the pIC50 is 5.00 to 5.30 in the assay with STAT3; 5.30 to 8.00 in the assay on SKOV3; 5.30 to 8.00 in the assay on PANC 1; 6.00 to 9.00 with TNF-α; 5.30 to 8.00 in the assay with A2780. For the same compound, the IC50 lay in the range of 0.001 to 5 µM with IL-6 and 0.01 to 0.3 µM in the assay on IL-8.
With `CN(N=Cc1cnc2ccc(-c3cccnc3)cn12)S(=O)(=O)c1cccc(F)c1` [Example 5, 3-Fluoro-N-methyl-N′-((6-(pyridine-3-yl)imidazo[1,2-a]pyridine-3-yl)methylene)benzenesulfonohydrazide], the pIC50 was 5.30 to 7.00 with STAT3; 5.30 to 8.00 in the assay with SKOV3; 5.30 to 8.00 in the assay on PANC 1; 4.82 to 6.00 in the assay with TNF-α; 5.30 to 8.00 in the assay on A2780. Besides, the values for the IC50 in the assay on IL-6 and in the assay on IL-8 were 0.001 to 5 µM and 0.3 to 3 µM, respectively.
